Assay results from US20160157482A1, “Antimicrobial Compositions Containing Carvacrol and Thymol” (Kemin Industries, Inc., priority 2013, published 2016).
Read-outs that look alike come from different tables or passages of the source.

Legend:
[1] = tested on: Escherichia coli 413-1, ATCC 25922; test: Microtiter plate assay, growth inhibition; format: cell-based
Experimental: (§1) Stock cultures of Escherichia coli 413-1, ATCC 25922, Salmonella Enteritidis, ATCC 13076, Bacillus subtilis PB6 (Kemin Industries) and Lactobacillus johnsonii D115 (Kemin Industries) were cultured from agar plates held at 4° C. and inoculated into tubes of either Tryptic Soy Broth (TSB) or de Man, Rogosa and Sharpe (MRS) broth. The bacteria were incubated aerobically or anaerobically as appropriate at 37° C. for 20-22 h. All microbial cultures used in this work are strains maintained in an in-house culture collection.
(§2) Stock solutions of 1000 ppm each of carvacrol and thymol standards were prepared in sterile TSB to which 0.1% agar was added for stabilization of the oil:water emulsion (Rasooli et al., 2007; Burt, S. and R. Reinders. 2003. Antibacterial activity of selected plant essential oils against Escherichia coli O157:H7. Letters Appl. Microbiol. 36:162-167). Subsequent dilutions and/or combinations of the standard stock solutions were prepared in TSB to achieve the targeted inclusion level of each molecule.
(§3) Stock solutions of 1000 ppm were made of each of the HC and HT extracted oils in sterile TSB or MRS broth to which 0.1% agar was added. Subsequent dilutions and/or combinations of the extracted oil stock solutions were prepared in TSB or MRS to achieve the targeted inclusion level of each molecule.
(§4) The efficacy of carvacrol and thymol in the inhibition of microbial growth was evaluated in a microtiter plate assay measuring the optical density at 620 nm using an Optimax microtiter plate reader (Molecular Devices, Sunnyvale, Calif.). Plates were read kinetically (aerobic organisms) or endpoint (anaerobic organisms) over 20-24 h while maintaining temperature at 35° C. All results reflect the average optical density measurements of four microtiter wells. A 100 uL aliquot of a test organism (1.0E+06 cfu/mL) in sterile saline and a 100 μL aliquot of experimental treatment were dispensed into individual microtiter plate wells. Treatments prepared in TSB were used for E. coli, S. Enteritidis and PB6 while treatments prepared in MRS broth were used for L. johnsonii D115. Positive controls consisted of 100 μL of test organism in sterile saline and 100 μL of sterile TSB or MRS. Negative controls were made of 100 μL of sterile TSB or MRS and 100 μL of sterile saline (no organisms).
(§5) The inhibitory levels of carvacrol and thymol against selected microorganisms were evaluated through several formulation matrices designed to assess the individual molecules as well as combinations of the molecules. Initially, thirteen formulations were prepared according to the incomplete 4×4 matrix design in Table 1 using 0, 125, 250 and 500 ppm each of carvacrol standard and thymol standard to evaluate the inhibitory activity toward selected microorganisms. […]

[2] = tested on: Salmonella Enteritidis, ATCC 13076; test: Microtiter plate assay, growth inhibition; format: cell-based; settings: Salmonella enterica, read-out: level needed to inhibit the growth (MIC)
Experimental: as §1, §2, §3, §4, §5

MIC ([1]; ATCC25922, microtiter plate, OD 620 nm, 20-24 h, 35° C., read-out: level needed to inhibit the growth (MIC))	MIC ([2]; microtiter plate, OD 620 nm, 20-24 h, 35° C.)	Structure (SMILES)	MIC ([1]; ATCC25922, read-out: level needed to inhibit the growth (MIC))	MIC [2]
		Cc1ccc(C(C)C)cc1O [carvacrol]	125 to 250 µg/mL	125 to 250 µg/mL
125 to 250 µg/mL	125 to 250 µg/mL	Cc1ccc(C(C)C)c(O)c1 [thymol]		
